Test systems include 786-0 renal; A549 NSCLC; COLO 205 colon; HOP-62 NSCLC; K-562 leukemia; OVCAR-5 ovarian; OVCAR-8 ovarian; SF-268 CNS; SF-539 CNS; SK-OV-3 ovarian; SNB-19 CNS; SNB-75 CNS; NCI-H226 lung; SN12C renal; UO-31 renal; RXF 393 renal.
Holding throughout (experiment): NCI anticancer screen, dose series, 48 h

The record followed here is PubChem BioAssay (NCI).

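Five concentrations, 48 hours, 96-well plates. GI50 is the concentration that inhibits growth by half. Definition used: TGI = concentration required for complete inhibition of growth.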

Consider `O=C1Nc2ccccc2C12CCNC2Cc1ccccc1` (configuration not stated), for which the TGI in the assay with 786-0 renal, with A549 NSCLC, in the assay with COLO 205 colon, in the assay on HOP-62 NSCLC, in the assay with K-562 leukemia and in the assay with OVCAR-5 ovarian was greater than 100 µM in each case. Moreover, the TGI in the assay on OVCAR-8 ovarian, in the assay on SF-268 CNS, in the assay on SF-539 CNS, in the assay on SK-OV-3 ovarian, with SNB-19 CNS and in the assay on SNB-75 CNS was greater than 100 µM in each case.
`N#CC1=C(N)n2c(s/c(=C\c3ccc(Cl)cc3)c2=O)=C(c2nc3ccccc3[nH]2)C1c1ccc(Cl)cc1` (configuration not stated): the TGI is 4.96 µM with 786-0 renal; 10.9 µM in the assay with A549 NSCLC; 6.38 µM in the assay on COLO 205 colon; 4.68 µM in the assay with HOP-62 NSCLC; 4.94 µM in the assay with K-562 leukemia; 3.46 µM in the assay with NCI-H226 lung. For the same compound, the TGI was 3.66 µM in the assay on OVCAR-5 ovarian; 3.78 µM with OVCAR-8 ovarian; 7.11 µM with SF-268 CNS; 3.56 µM in the assay on SF-539 CNS; 4.6 µM with SN12C renal; greater than 100 µM with SNB-19 CNS. Besides, the figures for the TGI in the assay with SNB-75 CNS and in the assay on UO-31 renal were 17.8 µM and greater than 100 µM, respectively.
With `Cc1ccc(S(=O)(=O)N/N=C(\c2nc3ccc(Cl)cc3[nH]c2=O)C(O)c2cccc([N+](=O)[O-])c2)cc1` (configuration not stated), the TGI in the assay on 786-0 renal, with A549 NSCLC, with COLO 205 colon, in the assay with HOP-62 NSCLC, with K-562 leukemia and in the assay on NCI-H226 lung was greater than 100 µM throughout. Moreover, the TGI in the assay on OVCAR-5 ovarian, in the assay on OVCAR-8 ovarian, in the assay with RXF 393 renal, with SF-268 CNS, in the assay on SF-539 CNS and in the assay on SK-OV-3 ovarian was greater than 100 µM in each case. Besides, the TGI in the assay on SN12C renal, in the assay with SNB-19 CNS, in the assay on SNB-75 CNS and in the assay on UO-31 renal was greater than 100 µM throughout.
Turning to `O=C(c1ccc(Cl)cc1)c1ccc(OCCCOc2ccc(C(=O)c3ccc(Cl)cc3)cc2)cc1`, the TGI in the assay on 786-0 renal, in the assay with A549 NSCLC, in the assay on COLO 205 colon, in the assay with HOP-62 NSCLC, in the assay with K-562 leukemia and in the assay with NCI-H226 lung was greater than 100 µM each time. In addition, the TGI in the assay with OVCAR-5 ovarian, in the assay on OVCAR-8 ovarian, in the assay with RXF 393 renal, with SF-268 CNS, in the assay with SF-539 CNS and in the assay with SK-OV-3 ovarian was greater than 100 µM in each case. For the same compound, the TGI in the assay with SN12C renal, in the assay on SNB-19 CNS and with SNB-75 CNS was greater than 100 µM each time.
Regarding `COc1cc2c(c(OC)c1OC)-c1ccc(SC)c(=O)cc1[C@@H](NCc1ccc(C#N)cc1)CC2`, the TGI in the assay on 786-0 renal was 48.9 µM; in the assay with A549 NSCLC, 28.6 µM; with COLO 205 colon it was 0.0128 µM; in the assay on HOP-62 NSCLC, greater than 100 µM; in the assay with K-562 leukemia, greater than 100 µM; in the assay with NCI-H226 lung, 0.00977 µM. The TGI with OVCAR-5 ovarian is greater than 100 µM; in the assay with RXF 393 renal, 0.00508 µM; with SF-539 CNS, 0.00582 µM; with SN12C renal, greater than 100 µM; in the assay with SNB-19 CNS it was greater than 100 µM; in the assay on SNB-75 CNS, greater than 100 µM. In the assay on UO-31 renal, this compound had a TGI greater than 100 µM. In addition, the GI50 in the assay on OVCAR-5 ovarian is 3.15 µM.
For the compound `NC(CCCC(N)P(=O)(O)c1ccccc1)P(=O)(O)c1ccccc1` (configuration not stated), the TGI in the assay with 786-0 renal, with A549 NSCLC, in the assay with COLO 205 colon, in the assay on HOP-62 NSCLC, in the assay on K-562 leukemia and with NCI-H226 lung was greater than 261 µM in each case. The TGI in the assay with OVCAR-8 ovarian, in the assay on RXF 393 renal, with SF-268 CNS, in the assay with SF-539 CNS, with SK-OV-3 ovarian and in the assay on SN12C renal was greater than 261 µM each time. Also, the TGI in the assay with SNB-19 CNS, in the assay on SNB-75 CNS and in the assay on UO-31 renal was greater than 261 µM each time.
For the compound `COc1ccc(-c2cc(=O)c3cc4c(cc3[nH]2)OCO4)cc1OC`, the TGI in the assay with 786-0 renal, in the assay with A549 NSCLC, in the assay on COLO 205 colon, in the assay on HOP-62 NSCLC, in the assay with K-562 leukemia and with NCI-H226 lung was greater than 100 µM in each case. For the same compound, the TGI in the assay on OVCAR-8 ovarian, in the assay on RXF 393 renal, in the assay on SF-268 CNS, in the assay with SF-539 CNS, in the assay on SK-OV-3 ovarian and with SN12C renal was greater than 100 µM each time. The TGI in the assay on SNB-19 CNS, with SNB-75 CNS and in the assay on UO-31 renal was greater than 100 µM throughout.
`CC(C)(C)N=NNc1cn(C2OC(CO)C(O)C2O)c(=O)[nH]c1=O` (configuration not stated): the TGI in the assay on 786-0 renal, in the assay with A549 NSCLC, in the assay on COLO 205 colon, in the assay with HOP-62 NSCLC, with K-562 leukemia and in the assay on NCI-H226 lung was greater than 100 µM in each case. For the same compound, the TGI in the assay on OVCAR-5 ovarian, with OVCAR-8 ovarian, with RXF 393 renal, with SF-268 CNS, with SK-OV-3 ovarian and in the assay on SN12C renal was greater than 100 µM in each case. For the same compound, the TGI in the assay on SNB-19 CNS, with SNB-75 CNS and in the assay with UO-31 renal was greater than 100 µM in each case.
As to `O=C(/N=C/c1c(O)c2ccccc2oc1=O)Nc1ccccc1`, the TGI with 786-0 renal, in the assay on A549 NSCLC, in the assay on COLO 205 colon, with K-562 leukemia, with NCI-H226 lung and in the assay on OVCAR-5 ovarian was greater than 100 µM throughout. The TGI was greater than 100 µM with OVCAR-8 ovarian; 91.8 µM with RXF 393 renal; greater than 100 µM in the assay with SF-268 CNS; greater than 100 µM with SF-539 CNS; greater than 100 µM with SK-OV-3 ovarian; greater than 100 µM with SN12C renal. The TGI in the assay with SNB-19 CNS is greater than 100 µM; in the assay on SNB-75 CNS it was 83.5 µM; in the assay on UO-31 renal it was greater than 100 µM.
`COc1cc2c(cc1OC)C(C(CO)CO)N(CC(O)CCl)CC2` (configuration not stated): the TGI in the assay with 786-0 renal, with A549 NSCLC, in the assay on COLO 205 colon, in the assay on HOP-62 NSCLC, in the assay with K-562 leukemia and in the assay with NCI-H226 lung was greater than 100 µM each time. The TGI in the assay with OVCAR-5 ovarian, in the assay with OVCAR-8 ovarian, in the assay on SF-268 CNS, with SF-539 CNS, in the assay with SK-OV-3 ovarian and in the assay with SNB-19 CNS was greater than 100 µM each time. Also, the TGI with SNB-75 CNS and in the assay with UO-31 renal was greater than 100 µM in each case.
Turning to `Cc1c(Cl)c2ccccc2n1S(=O)(=O)c1ccccc1`, the TGI in the assay with 786-0 renal, with A549 NSCLC, in the assay on COLO 205 colon, with HOP-62 NSCLC, in the assay on K-562 leukemia and with NCI-H226 lung was greater than 100 µM throughout. Moreover, the TGI with OVCAR-5 ovarian is greater than 100 µM; in the assay on OVCAR-8 ovarian, greater than 100 µM; in the assay on SF-268 CNS it was greater than 100 µM; with SF-539 CNS, greater than 100 µM; in the assay on SNB-19 CNS it was greater than 100 µM; in the assay on SNB-75 CNS it was 58 µM. Moreover, the TGI in the assay on UO-31 renal came out at 85.6 µM.
On to `CN1CCCC2(CCCc3ccccc32)C1` (configuration not stated), for which the TGI with 786-0 renal, in the assay on A549 NSCLC, with COLO 205 colon, in the assay on HOP-62 NSCLC, in the assay on K-562 leukemia and in the assay with NCI-H226 lung was greater than 100 µM in each case. In addition, the TGI in the assay on OVCAR-5 ovarian, in the assay with OVCAR-8 ovarian, in the assay with SF-268 CNS, in the assay on SF-539 CNS, with SK-OV-3 ovarian and in the assay on SN12C renal was greater than 100 µM throughout. Besides, the TGI with SNB-75 CNS and in the assay with UO-31 renal was greater than 100 µM each time.
For `Clc1ccc(SC(/C=C/NNC2=NC(c3ccccc3)C(c3ccccc3)=NN2)c2ccccc2)cc1` (configuration not stated), the TGI was greater than 100 µM in the assay with 786-0 renal; greater than 100 µM with A549 NSCLC; 45.6 µM in the assay on COLO 205 colon; greater than 100 µM in the assay with HOP-62 NSCLC; 53.1 µM with K-562 leukemia; 62.7 µM with NCI-H226 lung. Moreover, the TGI in the assay with OVCAR-5 ovarian is greater than 100 µM; in the assay with OVCAR-8 ovarian it was greater than 100 µM; in the assay with SF-268 CNS, 78.1 µM; in the assay with SF-539 CNS it was greater than 100 µM; with SK-OV-3 ovarian, greater than 100 µM; in the assay on SN12C renal it was greater than 100 µM. Also, the results for the TGI in the assay with SNB-19 CNS, with SNB-75 CNS and in the assay on UO-31 renal were greater than 100 µM, 64.7 µM and 38.8 µM, respectively.
In the case of `Cc1cccc2c(=O)c([Se]c3coc4c(C)cccc4c3=O)coc12`, the TGI with 786-0 renal was 31 µM; in the assay with A549 NSCLC, 23.9 µM; in the assay with HOP-62 NSCLC it was 32.9 µM; with K-562 leukemia it was greater than 100 µM; in the assay on NCI-H226 lung, 33.1 µM; in the assay on OVCAR-5 ovarian, 34.7 µM. Moreover, the TGI was 29.8 µM in the assay on OVCAR-8 ovarian; 32.2 µM in the assay with RXF 393 renal; 36.8 µM with SF-268 CNS; 29.9 µM in the assay with SF-539 CNS; 31.5 µM with SK-OV-3 ovarian; 37.9 µM in the assay with SN12C renal. The TGI in the assay on SNB-19 CNS came to 47.4 µM; in the assay on SNB-75 CNS it was 31.3 µM; in the assay with UO-31 renal, 28.7 µM.
